Assay results reported in patent publication US20250129021A1, “SMALL MOLECULE PROTEIN SYNTHESIS MODULATORS” (Interdict Bio, Inc., priority 2023, published 2025).

Experiments:
Format in all cases: biochemical
[1] = system: CCND1; assay: In vitro transcription-translation (IVTT) assay, CCND1 reporter; details: IVTT, HeLa S3 lysate, 2 hrs at 30° C.
In short: (§1)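 Reporter: mCherry, P2A, then 3×FLAG-target peptide-sfGFP fusion, IRES-initiated; HeLa S3 lysate IVTT; cpd dilutions 30 μM−0.1 μM half-log in 100% DMSO (dilution-plate conc); DNA added last; 2 h, 30° C; PBS quench.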

[2] = system: CCNE1; assay: In vitro transcription-translation (IVTT) assay, CCNE1 reporter; details: HeLa S3 lysate, 2 hrs at 30° C.
Description: Each preparation takes 8 cell pellets (4 ml packed volume each, approximately 1.0×10^9 cells per pellet). Thaw cell pellets from −80° C. on ice for 90 mins. Lay pellets horizontally on top of the ice and rotate every 30 mins to ensure even thawing. Once thawed, add 4 mL of cold lysis buffer to each pellet, and using a serological pipet, gently pipet up and down to break up clumps. Incubate resuspended cells in ice for an additional 30 mins (plunged into ice). During 30 min incubation, rinse and RNase-zap (Ambion) glass dounces (use loose pestle “A”), gently dry and place on ice until needed. Prepare RNase-free Eppendorf tubes for spinning and for batch storage. Add batch labels to 1.5-1.7 mL RNase-free microcentrifuge tubes (labeling scheme below). Each batch will have an extra 1.5-1.7 mL RNase-free microcentrifuge tube for 40 μL of lysate, label the top of this tube (labeling scheme below). After 30 min incubation, transfer all 8 mL of cell pellet to dounce. Cell lysis is complete after douncing 100 times. Aliquot cell lysis into 1.5-1.7 mL temporary-microcentrifuge tubes. Place tubes in centrifuge with “fins” out, and spin at 1,200×g for 5 mins. After the first spin use a 1 mL pipet to resuspend each tube and repeat spin. This acts as an additional lysis step, is more vigorous and increases lysate yield. During second spin get liquid N2 and a fresh conical tube on ice. After spin is complete, transfer supernatant (lysate) from microcentrifuge tubes into the 50 mL conical tube and keep on ice. Repeat steps 10-14 for all other cell pellets until completed. Once all cell lysate has been transferred to the 50 mL conical tube pipet to mix so the solution is homogenous. Transfer 1 mL of lysate into batch-labeled microcentrifuge tubes and flash freeze in liquid nitrogen. Be sure to pipet up and down to mix throughout transfer step. Place all tubes in the […] for long-term storage.
In vitro transcription-translation assay setup: Each assay includes a master mix containing lysate and shared components, a 96-well plate containing compound titrations for testing, a 96-well DNA plate with reporter constructs to be tested, 96-well skirted PCR plates, and 96-well flat-bottom, black, fluorescent assay plates. Reaction materials setup: (A) Master mix—15 mL conical tube (3 mL of HeLa S3 Lysate described above; 0.6 mL of ThermoFisher Accessory Proteins (#88882); 1.2 ml of ThermoFisher Reaction Mix (#88882); 0.54 mL of nuclease-free Water); (B) 96-Well Master Mix+Compound Plate (Half-log dilutions (30 μM−0.1 μM) of 4 compounds of interest are prepared in 100% DMSO); 96-Well DNA Plate (Five DNA constructs are plated into single columns within the plate. Row 1 of the column contains nuclease free H2O, all other wells contain 110 ng/μL plasmid DNA). Reactions are started by mixing 155 μL of master mix and 3.5 μL of compound serial dilutions, then 9.1 μL of master mix+compound mixture is aliquoted across 5 96-well plates. Reactions begin with final addition of 2 μL of DNA for a 11.1 μL reaction volume in each well. The entire plate is sealed, and incubated for 2 hrs at 30° C. After 2 hrs, quench the assay using 45 μL of PBS, and transfer 50 μL to a flat-bottom black microplate Quantify the sfGFP and mCherry signals from each well on each plate, taking 3 reads of each plate, and perform data analysis below.
In vitro transcription-translation assay data analysis: Each plate is read three times in channels for both sfGFP and mCherry signals. The average signal across these 3 reads is then calculated for further analysis. Control wells containing no DNA reporter are subtracted from reporter wells in the same column to remove auto-fluorescence of the lysate. Then, the ratio of sfGFP/mCherry is calculated per well, and these ratios are averaged across the triplicate experiments on the same plate. Finally, the ratio of each titration concentration is normalized to the no drug control to create the normalized stalling metric. […]

[3] = system: MYC; assay: In vitro transcription-translation (IVTT) assay, MYC reporter; details: IVTT assay, HeLa S3 lysate, MYC reporter, normalized sfGFP/mCherry ratio; half-log dilutions 30 μM-0.1 μM, 2 hrs at 30° C.
In short: as §1

[4] = system: CCNTB1; assay: In vitro transcription-translation (IVTT) assay, CCNTB1 reporter; details: HeLa S3 lysate, 2 hrs at 30° C.
In short: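 HeLa S3 lysate-based coupled transcription-translation reactions with reporter plasmids, compounds in half-log dilutions (30 μM−0.1 μM, in DMSO), 2 h at 30° C. sfGFP/mCherry ratio, corrected for no-DNA background, normalized to no-drug control and fitted for IC50.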

IC50 [1]	IC50 [2]	IC50 [4]	SMILES	IC50 [3]
10 to 20 µM	< 10 µM	< 10 µM	COc1ccc(C[C@H]2NC[C@H](O)[C@H]2OC(=O)NCCO[C@@H]2CCNC2)cc1 [V188071, (2R,3S,4S)-4-hydroxy-2-[(4-methoxyphenyl)methyl]pyrrolidin-3-yl N-{2-[(3R)-pyrrolidin-3-yloxy]ethyl}carbamate]	10 to 20 µM
20 to 30 µM	10 to 20 µM	< 10 µM	COc1ccc(C[C@H]2NC[C@H](O)[C@H]2OC(=O)NC[C@H]2CCNC2)cc1F [V188076, (2R,3S,4S)-2-[(3-fluoro-4-methoxyphenyl)methyl]-4-hydroxypyrrolidin-3-yl N-[(3S)-pyrrolidin-3-ylmethyl]carbamate]	> 30 µM
20 to 30 µM	< 10 µM	< 10 µM	COc1ccc(C[C@H]2NC[C@H](O)[C@H]2OC(=O)NCCn2ccnc2[N+](=O)[O-])cc1 [V188085, (2R,3S,4S)-4-hydroxy-2-[(4-methoxyphenyl)methyl]pyrrolidin-3-yl N-[2-(2-nitroimidazol-1-yl)ethyl]carbamate]	10 to 20 µM
> 30 µM	> 30 µM	> 30 µM	O=C(NCc1ccc(OC(F)(F)F)cc1)O[C@@H]1[C@@H](O)CN[C@@H]1Cc1ccc(Cl)cc1 [V188286, (2R,3S,4S)-2-[(4-chlorophenyl)methyl]-4-hydroxypyrrolidin-3-yl N-{[4-(trifluoromethoxy)phenyl]methyl}carbamate]	> 30 µM
< 10 µM	< 10 µM	< 10 µM	COc1ccc(C[C@H]2NC[C@H](O)[C@H]2OC(=O)NCc2ccc3[nH]cnc3c2)cc1 [V188150, (2R,3S,4S)-4-hydroxy-2-[(4-methoxyphenyl)methyl]pyrrolidin-3-yl N-(JH-1,3-benzodiazol-5-ylmethyl)carbamate]	< 10 µM
10 to 20 µM	< 10 µM	< 10 µM	O=C(NCC1CC1)O[C@@H]1[C@@H](O)CN[C@@H]1Cc1ccc(Cl)cc1 [V188275, (2R,3S,4S)-2-[(4-chlorophenyl)methyl]-4-hydroxypyrrolidin-3-yl N-(cyclopropylmethyl)carbamate]	< 10 µM
> 30 µM	10 to 20 µM	< 10 µM	COc1ccc(C[C@H]2NC[C@H](O)[C@H]2OC(=O)NCCn2cc[nH]c2=O)cc1 [V188088, (2R,3S,4S)-4-hydroxy-2-[(4-methoxyphenyl)methyl]pyrrolidin-3-yl N-[2-(2-oxo-3H-imidazol-1-yl)ethyl]carbamate]	20 to 30 µM

Further lines, the molecule ahead of its results:

SMILES	IC50 [1]	IC50 [2]	IC50 [4]	IC50 [3]
COc1ccc(C[C@H]2NC[C@H](O)[C@H]2OC(=O)NCC2CCNCC2)cc1 [V188172, (2R,3S,4S)-4-hydroxy-2-[(4-methoxyphenyl)methyl]pyrrolidin-3-yl N-(piperidin-4-ylmethyl)carbamate]	> 30 µM	> 30 µM	> 30 µM	> 30 µM
O=C(NCc1ccccc1)O[C@@H]1[C@@H](O)CN[C@@H]1Cc1ccc(Cl)cc1 [V188203, (2R,3S,4S)-2-[(4-chlorophenyl)methyl]-4-hydroxypyrrolidin-3-yl N-benzylcarbamate]	10 to 20 µM	< 10 µM	< 10 µM	10 to 20 µM
COc1ccc(C[C@H]2NC[C@H](O)[C@H]2OC(=O)NCc2cc(N3CCC3)nc(N3CCC3)c2)cc1 [V188227, (2R,3S,4S)-4-hydroxy-2-[(4-methoxyphenyl)methyl]pyrrolidin-3-yl N-{[2,6-bis(azetidin-1-yl)pyridin-4-yl]methyl}carbamate]	20 to 30 µM	20 to 30 µM	< 10 µM	20 to 30 µM
NS(=O)(=O)c1ccc(CNC(=O)O[C@@H]2[C@@H](O)CN[C@@H]2Cc2ccc(Cl)cc2)cc1 [V188291, (2R,3S,4S)-2-[(4-chlorophenyl)methyl]-4-hydroxypyrrolidin-3-yl N-[(4-sulfamoylphenyl)methyl]carbamate]	< 10 µM	< 10 µM	< 10 µM	10 to 20 µM
O=C(NC[C@H]1CCNC1)O[C@@H]1[C@@H](O)CN[C@@H]1Cc1ccc(Cl)cc1 [V188188, (2R,3S,4S)-2-[(4-chlorophenyl)methyl]-4-hydroxypyrrolidin-3-yl N-[(3S)-pyrrolidin-3-ylmethyl]carbamate]	> 30 µM	< 10 µM	< 10 µM	> 30 µM
COc1ccc(C[C@H]2NC[C@H](O)[C@H]2OC(=O)NCCC23CCCN2CCC3)cc1 [V188135, (2R,3S,4S)-4-hydroxy-2-[(4-methoxyphenyl)methyl]pyrrolidin-3-yl N-[2-(hexahydropyrrolizin-7a-yl)ethyl]carbamate]	20 to 30 µM	20 to 30 µM	10 to 20 µM	10 to 20 µM
COc1ccc(C[C@H]2NC[C@H](O)[C@H]2OC(=O)NC[C@H]2CCN(C)C2)cc1 [V188108, (2R,3S,4S)-4-hydroxy-2-[(4-methoxyphenyl)methyl]pyrrolidin-3-yl N-{[(3R)-1-methylpyrrolidin-3-yl]methyl}carbamate]	> 30 µM	> 30 µM	20 to 30 µM	> 30 µM
COc1ccc(C[C@H]2NC[C@H](O)[C@H]2OC(=O)NCc2ccnc(C(F)(F)F)c2)cc1 [V188050, (2R,3S,4S)-4-hydroxy-2-[(4-methoxyphenyl)methyl]pyrrolidin-3-yl N-{[2-(trifluoromethyl)pyridin-4-yl]methyl}carbamate]	< 10 µM	< 10 µM	< 10 µM	< 10 µM
COc1ccc(C[C@H]2NC[C@H](O)[C@H]2OC(=O)NC[C@H]2C[C@@H](N)C2)cc1 [V188147, (2R,3S,4S)-4-hydroxy-2-[(4-methoxyphenyl)methyl]pyrrolidin-3-yl N-{[(1s,3s)-3-aminocyclobutyl]methyl}carbamate]	10 to 20 µM	< 10 µM	< 10 µM	< 10 µM
COc1ccc(C[C@H]2NC[C@H](O)[C@H]2OC(=O)NCc2ccnc(N3CCCC3)c2)cc1 [V188226, (2R,3S,4S)-4-hydroxy-2-[(4-methoxyphenyl)methyl]pyrrolidin-3-yl N-{[2-(pyrrolidin-1-yl)pyridin-4-yl]methyl}carbamate]	< 10 µM	< 10 µM	< 10 µM	< 10 µM
COc1ccc(C[C@H]2NC[C@H](O)[C@H]2OC(=O)NCc2ccc(-c3ncc[nH]3)cc2)cc1 [V188144, (2R,3S,4S)-4-hydroxy-2-[(4-methoxyphenyl)methyl]pyrrolidin-3-yl N-{[4-(1H-imidazol-2-yl)phenyl]methyl}carbamate]	< 10 µM	< 10 µM	< 10 µM	< 10 µM
CNC(=O)c1ccc(CNC(=O)O[C@@H]2[C@@H](O)CN[C@@H]2Cc2ccc(OC)cc2)cc1 [V188305, (2R,3S,4S)-4-hydroxy-2-[(4-methoxyphenyl)methyl]pyrrolidin-3-yl N-{[4-(methylcarbamoyl)phenyl]methyl}carbamate]	< 10 µM	< 10 µM	< 10 µM	< 10 µM
